PMC8748766, “The catalytic activity of TCPTP is auto-regulated by its intrinsically disordered tail and activated by Integrin alpha-1” (Nature Communications, 2022)

How the values were obtained:
TCPTP [1] = target: T1, TCPTP (Homo sapiens, UniProt P17706); assay: Effect of ITGA1, ITGA10 & ITGA11 peptide on TCPTP activity, pEGFR peptide-2; type: biochemical; details: pEGFR peptide-2 substrate, n = 9
T1 construct: fragments of TCPTP (residues: 1–387); His6 (N, cleaved yes); made in house; host or cells: E. coli BL21 (DE3) RIL
T1 sequence (P17706 1-387 isoform P17706-2): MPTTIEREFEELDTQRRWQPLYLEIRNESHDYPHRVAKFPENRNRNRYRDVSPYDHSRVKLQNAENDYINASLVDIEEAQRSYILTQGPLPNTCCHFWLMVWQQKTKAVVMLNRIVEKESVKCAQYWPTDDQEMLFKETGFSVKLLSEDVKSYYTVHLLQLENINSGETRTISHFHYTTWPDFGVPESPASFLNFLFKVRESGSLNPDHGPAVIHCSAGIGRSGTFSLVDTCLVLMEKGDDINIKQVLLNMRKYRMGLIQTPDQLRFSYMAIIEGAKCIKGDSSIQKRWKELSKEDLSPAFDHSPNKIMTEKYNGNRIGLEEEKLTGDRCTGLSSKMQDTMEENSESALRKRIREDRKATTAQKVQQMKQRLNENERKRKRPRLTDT
Description: (§1) Polymerase chain reaction (PCR) fragments of TCPTP (residues: 1–387) TCPTPCAT (catalytic domain, residues: 1–288, 1–302 or 1–314), TCPTPTail (C-terminal tail, residues: 289–387 or 303–387) were amplified from full-length human TCPTP (TC45 isoform). TCPTP, TCPTPCAT (residues: 1–288, 1–314), and TCPTPTail (residues: 289–387) fragments were cloned into pMCSG7 including a N-terminal His6-tag using ligation-independent cloning. For all NMR experiments, the PCR fragments of TCPTP, TCPTPCAT (residues: 1–302) and TCPTPTail (residue: 303–387) were sub-cloned into pRP1B as previously described.
Relative activity of TCPTP and its variant mutant construct were measured by adding 1 nM of enzymes against the fixed concentration of substrate (100 μM of phosphopeptides), the reaction was incubated at 30 °C for 30 min in assay buffer before getting stopped as described above. […]
Supplementary Figure 8: TCPTP is distinctively activated by Integrin cytoplasmic tail with positive charge residue clusters. a Sequence alignment of the cytoplasmic tail for the human Integrin family. Positive charge residues are highlighted in blue, while negative charge residues are red; a black box highlights large clusters of positive charge residue. b Effect of ITGA1, ITGA10 & ITGA11 on the catalytic activity of TCPTP, measured against pEGFR peptide-2, derived from the EGFR’s kinase domain activation loop. […]

TCPTPCAT = target: T2, TCPTPCAT (Homo sapiens, UniProt P17706); assay: NMR titration (2D HSQC/TROSY) binding to TCPTPCAT; details: 2D [1H,15N] TROSY, unlabeled ligand added
T2 construct: TCPTP and TCPTPCAT (residue 1–314) against 2 phosphotyrosine peptides derived from EGFR; His6 (N, cleaved yes); made in house; host or cells: E. coli BL21 (DE3) RIL
T2 sequence (P17706 1-314 isoform P17706-2): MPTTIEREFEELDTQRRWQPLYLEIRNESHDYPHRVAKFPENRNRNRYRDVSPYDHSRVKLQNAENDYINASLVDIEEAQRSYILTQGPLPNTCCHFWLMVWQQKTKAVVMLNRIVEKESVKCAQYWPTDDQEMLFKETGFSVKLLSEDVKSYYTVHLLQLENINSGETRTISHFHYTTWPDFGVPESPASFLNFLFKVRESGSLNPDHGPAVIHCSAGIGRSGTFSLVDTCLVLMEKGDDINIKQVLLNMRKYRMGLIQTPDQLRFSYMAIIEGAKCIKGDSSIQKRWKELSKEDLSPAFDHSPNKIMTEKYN
Description: as §1
NMR data were collected on either Bruker NEO 600 MHz or 800 MHz spectrometers equipped with TCI HCN z-gradient cryoprobes at 298 K or 283 K. NMR measurements of TCPTP’s variant construct were recorded using (^1H,^15N)-, (^2H,^15N)-, (^1H,^15N,^13C), or (^2H,^15N,^13C)-labeled protein at a final concentration of 0.6 mM for backbone assignment or 0.1 mM for titration in NMR buffer and 90% H2O/10% D2O. The sequence-specific backbone assignments of TCPTP (residues 1–387), TCPTPCAT (residues 1–302), TCPTPTail (residues 303–387) and other variants were achieved using 3D triple resonance experiments including […], 3D HNCA, 3D HN(CO)CA, 3D HN(CO)CACB, and 3D HNCACB either as HSQC or TROSY variations. All NMR data were processed using TopSpin 4.0.5[44] and analyzed using either CARA (http://www.cara.nmr.ch) and/or CcpNMR[45].

TCPTP [2] = target: T1, TCPTP; assay: EC50 assay: TCPTP activation by ITGA1 peptides (pEGFR peptide-1 dephosphorylation); type: biochemical; details: 1 nM TCPTP, 50 μM pEGFR peptide-1, n = 3
Description: as §1
To determine the EC50, synthesized ITGA1 peptides (ITGA1_FCT, ITGA1_TCT and ITGA1_TR) were mixed with TCPTP, and phosphatase activity was measured using the phospho-EGFR peptides (pEGFR peptide-1) as substrate. Lyophilized powder of all peptides was dissolved in 25 mM Hepes pH 7.4, 50 mM NaCl. For the assay, the TCPTP concentration was fixed at 1 nM and substrate phospho-peptide at 50 μM. […] The absorbance of the reaction mixture was measured at 650 nm, which was converted to the amount of phosphate produced in reaction based on the standard curve generated from the known phosphate concentration. Data obtained from the reaction was fitted using nonlinear regression mode and EC50 values were calculated based on the equation function “Log(agonist) vs. response-variable slope” using Graph Pad Prism 9.0.

TCPTP [3] = target: T1, TCPTP; assay: Kinetics of TCPTP with saturating ITGA1 peptide, pEGFR peptide-1 substrate; type: biochemical; details: TCPTP saturated with ITGA1 peptide (ITGA1_TR 1 μM; ITGA1_FCT 25 μM), mean ± SE, n = 9
Description: as §1
(§2) The rate of dephosphorylation of TCPTP and TCPTPCAT (residue 1–314) against 2 phosphotyrosine peptides derived from EGFR was monitored either with or without ITGA1 peptide (ITGA1_FCT & ITGA1_TR) in assay buffer (25 mM Hepes pH 7.4, 50 mM NaCl and 1 mM DTT). Lyophilized powder of all synthetic peptides was dissolved in assay buffer without DTT (phosphopeptides, 5 mM; ITGA1 peptides, 2 mM). For the kinetic analysis, the concentration of the enzyme was fixed at 1 nM while the substrate (phosphopeptides) concentration was varied from 2.5 μM to 160 μM in a total reaction volume of 200 μl. Effect of ITGA1 peptide on TCPTP & TCPTPCAT kinetics were assessed in saturated condition by adding an excess amount of ITGA1 peptide to the reaction mixture (ITGA1_TR = 1 μM; ITGA1_FCT = 25 μM). The reaction was incubated at 30 °C for 30 min and stopped by the addition of 30 μl phosphate reagent (phosphate colorimetric assay kit; Bio Vision) following the manufacturer’s instructions. Data were normalized and fitted using a nonlinear curve, and kinetics parameters (KM and kcat) were calculated from the Michaelis-Menten equation using Graph Pad Prism 9.0. All data points in the enzyme kinetics experiment were measured in triplicate, and the experiments were repeated three times.

TCPTP [4] = target: T1, TCPTP; assay: Kinetics of TCPTP with saturating ITGA1 peptide, pEGFR peptide-2 substrate; type: biochemical; details: TCPTP saturated with ITGA1 peptide (ITGA1_TR 1 μM; ITGA1_FCT 25 μM), mean ± SE, n = 9
Description: as §1, §2

[5] = test system: pEGFR peptide-2, derived from the EGFR's kinase domain activation loop; assay: Phosphatase kinetic analysis (Michaelis-Menten) of TCPTP constructs, pEGFR peptide-2 substrate; type: biochemical
Protocol: as §2
Supplementary Table 2: Enzymatic activity assay (Michaelis-Menten analysis); substrate pEGFR peptide-2, derived from the EGFR’s kinase domain activation loop. Calculated kinetic parameter are presented as the mean of nine independent reactions (n=9; mean ± SE). Source data are provided as a Source Data file. kcat (s-1) Km (µM) kcat/Km (µM -1s-1)

[6] = DiFMUP assay of TCPTP, TCPTPCAT, PTP1B and PTP1BCAT; type: biochemical; details: 10 μM DiFMUP, 2.5 nM protein, pH 7.4, 25 min, fluorescence 455 nm; n = 9
Protocol: Activity of TCPTP, TCPTPCAT (residue 1–314) either with or without ITGA1 peptides (ITGA1_TR; 1:50 molar ratio, ITGA1_FCT; 1:1000 molar ratio), PTP1B (residue 1–400) and PTP1BCAT (residue 1–321) were assessed in assay buffer (25 mM Hepes pH 7.4, 50 mM NaCl, and 1 mM DTT). The assay was performed in black polystyrene flat bottom 96-well plate. The concentration of DiFMUP was fixed at 10 μM and protein concentration at 2.5 nM in total reaction volume of 100 μl. The emitted fluorescent signal at 455 nm was continuously recorded for 25 min using a Tecan Infinite M1000 pro microplate reader (Tecan i-control, 2.0.10.0).

[7] = test system: pEGFR peptide-1, derived from the cytoplasmic tail of EGFR; assay: Phosphatase kinetic analysis (Michaelis-Menten) of TCPTP constructs, pEGFR peptide-1 substrate; type: biochemical
Protocol: as §2

[8] = pEGFR peptide-2 2.5-160 μM, 1 nM enzyme, pH 7.4, 30 °C 30 min, mean ± SE, n = 9

**Q.** For KLGFFAHKKIPEEEKREEKLEQ [ITGA10], which TCPTP activation (TCPTP [1]) is on record?
**A.** fails to do so

**Q.** Which TCPTP activation (TCPTP [1]) does the source give for KLGFFRSARRRREPGLDPTPKVLE [ITGA11] here?
**A.** efficiently activates TCPTP

**Q.** For “KIGFFKRPLKKKMEK [ITGA1_FCT, ITGA1 full cytoplasmic tail: …]”, which “NMR titration: CSPs in (2H,15N)-labeled TCPTPCAT” value (TCPTPCAT) is on record?
**A.** significant CSPs in the same residues

**Q.** And the “activation relative to ITGA1_TCT” value (TCPTP [2])?
**A.** functions better than ITGA1_TCT

**Q.** And the kcat (TCPTP [3]; pEGFR peptide-1, 1 nM enzyme, pH 7.4, 30 °C 30 min)?
**A.** 26.6 ± 0.8 s⁻¹

**Q.** And the Km (TCPTP [3]; pEGFR peptide-1, pH 7.4, 30 °C)?
**A.** 20.2 ± 1.9 µM

**Q.** And the kcat/Km (TCPTP [3]; pEGFR peptide-1)?
**A.** 1.3e+06 ± 100000 M⁻¹ s⁻¹

**Q.** And the kcat (TCPTP [4]; pEGFR peptide-2, pH 7.4, 30 °C 30 min)?
**A.** 30.2 ± 1.2 s⁻¹

**Q.** What about the Km (TCPTP [4]; pEGFR peptide-2) of the same molecule?
**A.** 32.8 ± 3.7 µM

**Q.** And the kcat/Km (TCPTP [4]; pEGFR peptide-2)?
**A.** 0.9 ± 0.1 µM -1s-1

B1: TCPTP: T-Cell Protein Tyrosine Phosphatase, TC45 isoform, full-length residues 1–387 (protein)
chain: MPTTIEREFEELDTQRRWQPLYLEIRNESHDYPHRVAKFPENRNRNRYRDVSPYDHSRVKLQNAENDYINASLVDIEEAQRSYILTQGPLPNTCCHFWLMVWQQKTKAVVMLNRIVEKESVKCAQYWPTDDQEMLFKETGFSVKLLSEDVKSYYTVHLLQLENINSGETRTISHFHYTTWPDFGVPESPASFLNFLFKVRESGSLNPDHGPAVIHCSAGIGRSGTFSLVDTCLVLMEKGDDINIKQVLLNMRKYRMGLIQTPDQLRFSYMAIIEGAKCIKGDSSIQKRWKELSKEDLSPAFDHSPNKIMTEKYNGNRIGLEEEKLTGDRCTGLSSKMQDTMEENSESALRKRIREDRKATTAQKVQQMKQRLNENERKRKRPRLTDT
modifications: left off: His6, N-terminal, cleaved
**Q.** For B1, which Km [5, 8] is on record?
**A.** 21.2 ± 2.6 µM

**Q.** What about the kcat [5, 8] of the same molecule?
**A.** 13.8 ± 0.5 s⁻¹

**Q.** What about the kcat/Km ([5]; pEGFR peptide-2, mean ± SE, n = 9) of the same molecule?
**A.** 0.6 ± 0.1 µM -1s-1

**Q.** And the “rate of dephosphorylation, fold slower than TCPTPCAT” value ([5]; pEGFR peptide-2, vs TCPTPCAT)?
**A.** ~ 3 fold

**Q.** What about the “DiFMUP dephosphorylation, times slower than with TCPTPCAT” value [6] of the same molecule?
**A.** ~ 3 times

**Q.** And the kcat ([7]; pEGFR peptide-1 2.5-160 μM, 1 nM enzyme, 25 mM Hepes pH 7.4, 50 mM NaCl, 1 mM DTT, 30 °C 30 min, mean ± SE, n = 9 (TCPTPCAT, TCPTP) or 12 (TCPTPC-term, TCPTPL1))?
**A.** 12.2 ± 0.2 s⁻¹

**Q.** What about the Km ([7]; pEGFR peptide-1 2.5-160 μM, 1 nM enzyme, pH 7.4, 30 °C 30 min, mean ± SE, n = 9 (TCPTPCAT, TCPTP) or 12 (TCPTPC-term, TCPTPL1)) of the same molecule?
**A.** 12.4 ± 0.6 µM

**Q.** And the kcat/Km ([7]; pEGFR peptide-1, pH 7.4, 30 °C, mean ± SE, n = 9 (TCPTPCAT, TCPTP) or 12 (TCPTPC-term, TCPTPL1))?
**A.** 1e+06 ± 100000 M⁻¹ s⁻¹

**Q.** And the “rate of dephosphorylation, fold slower than TCPTPCAT” value ([7]; pEGFR peptide-1, vs TCPTPCAT)?
**A.** ~ 3 fold
